According to patent US11553713B2, “Polyalcohol, carbohydrate, nucleobase and nucleotide compositions and uses thereof” (Chunbo Zhang, priority 2015, dated 2023):

Tests used:
[1] = tested on: female mosquitoes; experiment: Efficacy by ingestion: feeder test in 6-liter cage, death rate of female mosquitoes; format: in vivo; conditions: for Death Rate / Death Rate within 24 hrs after treatment removed / Death Rate within 2 days after treatment removed / Death Rate within 3 days after treatment removed / Death Rate within 4 days after treatment removed: 10% sugar in CPDA, 24 hrs; for timing of death after ingestion (“delayed” death): after treatment was removed
Description: Female mosquitoes were used in the experiment because only female mosquitoes bite humans and animals and transmit infectious diseases.
(2R)-3-fluoropropane-1,2-diol (rFOH) was used as the active agent at various concentrations. A sugar feeder containing 10% sucrose, which is a regular mosquito feeder in a laboratory setting, was used as a regular food source in free choice studies. A free choice study allows the pests to select which feeder to feed on when given two or more choices.
In a two-choice test, a 6-liter cage was supplied with two feeders, one contained 5% rFOH and 10% sucrose in CPDA and the other one contained 10% sucrose without any rFOH or CPDA. 100 female mosquitoes were placed in the cage having the two feeders such that the mosquitoes chose freely which feeder to feed on. After 24 hours of feeding in the cage, over 80% of mosquitoes were dead. […] When the concentration of rFOH was reduced to 1% or 0.15%, its effectiveness remained the same. Over 80% of mosquitoes were dead due to 24 hours of feeding with rFOH.
Subsequent to 24 hours of feeding, rFOH feeder was removed from the cage and a regular sugar feeder (10% sucrose) was provided. In the next day, 5-20% of residual death was observed, indicating a delayed death after rFOH ingestion.
In a further study, mosquitoes were fasted for 24 hours before feeding to ensure that all mosquitoes have the capacity for food intake. […] Thus, fasting is not a cause of mosquito death during a series of experiments.
The experiments determined that 0.1% rFOH was sufficient to achieve 50% death (LD50) under various conditions. In one study, 100 mosquitoes were caged in a 6-liter space and fasted for 24 hours. Subsequently, the mosquitoes were fed on two feeders giving their free choices for 0.1% rFOH containing 10% sucrose in CPDA or 10% sucrose without rFOH for 24 hours, resulting in 43% death. In a parallel study in which the cage was supplied with a single feeder, the 0.1% rFOH feeder containing 10% sucrose in CPDA, which caused 44% of death after 24 hours of feeding.
Similar experiments as disclosed above were performed with various rFOH concentrations under various conditions. The rFOH composition contained 10% sugar in CPDA solution unless specified otherwise.
Similar experiments as disclosed above were performed on female mosquitoes to determine LD50. The rFOH composition contained 10% sugar in CPDA solution unless specified otherwise.
(§1) Similar experiments as disclosed above were performed on female mosquitoes using different active agents at various concentrations. The active agent composition contained 10% sugar in CPDA solution unless specified otherwise.

[2] = tested on: Methicillin/oxacillin resistant Staphylococcus aureus (MRSA) strain (ATCC 43300); experiment: MIC test, broth microdilution (CLSI M07-A9); format: cell-based
Procedure: (§2) The effects of pesticides disclosed herein on various bacteria were tested by determining the minimal inhibitory concentration (MIC) of the pesticides. MIC of an antimicrobial agent is the lowest concentration of the antimicrobial agent that inhibits a given bacterial isolate from multiplying and producing visible growth in the test system. The MIC of rFOH and BrOH was determined in the laboratory by incubating a known quantity of bacteria with a series of dilutions of the active agents and comparing their effects with those of known antimicrobial agents. Table 6 lists the representative bacterial strains and the conditions in MIC tests. Antimicrobial tests of the active agents were conducted according to “Methods for Dilution Antimicrobial Susceptibility Tests for Bacteria That Grow Aerobically” by Clinical and Laboratory Standards Institute (CLSI) (CLSI document M07-A9, 2012). In the study, methicillin/oxacillin resistant Staphylococcus aureus (MRSA) strain (ATCC 43300) was routinely under screening with 4 ug/ml oxacillin. Escherishia coli DH5α was a nonpathogenic laboratory strain. […] When the DH5α/plasmid (DH5P) colony was used, the colony was maintained in the presence of 100 ug/ml ampicillin.
(§3) MIC tests were conducted in 96 well microtiter plates with a total volume of 150 ul broth in each well. The directly colony suspension method (CLSI document M07-A9, 2012) was applied to obtain MIC for antimicrobial tests of the active agents. After colonies were freshly incubated overnight, colonies were suspended in sterile water to adjust the inoculum to a turbidity equivalent to a 0.5 McFarland standard (corresponding to approximately 1.5×10^8 CFU/ml). Within 10 minutes, the inoculum was adjusted by dilution in broth to reach a final concentration of 5×10^5 CFU/ml. A series of various concentrations of the active agents were applied to determine the MIC. In the same microtiter plate, an internal standard formulated by a concentration series of standard antibiotic agent was incubated in parallels to allow for back-to-back comparison.

[3] = tested on: Escherishia coli DH5α; experiment: MIC test, broth microdilution (CLSI M07-A9); format: cell-based
Procedure: as §2, §3

[4] = tested on: Escherishia coli DH5α transformed with a pcDNA3 plasmid (DH5P); experiment: MIC test, broth microdilution (CLSI M07-A9); format: cell-based
Procedure: as §2, §3

[5] = tested on: female mosquitoes; experiment: Membrane feeding test, death rate of female mosquitoes; format: in vivo; conditions: active agent at 1%; 18 hrs fasting; membrane feeding for 1 hour and 45 minutes before sugar feeder provided
Procedure: as §1
This is because membrane feeding provides only a small space accessible to a limited number of mosquitoes for feeding.

[6] = Stability of FOH; format: physicochemical; conditions: normal temperature and pressure
Procedure: In some embodiments, 3-fluoropropane-1,2-diol (FOH) (R^1═R^2=R^3═R^5═H, n=2, m=0 in formula I) is exemplified as an active agent of the compositions disclosed herein. FOH has two enantiomeric isomers (2r)-3-fluoropropane-1,2-diol (rFOH) and (2s)-3-fluoropropane-1,2-diol (sFOH). FOH is a nonvolatile chemical having a boiling point of 205.4° C. at 760 mm Hg, a flash point of 87.2° C., and a density of 1.192 g/cm^3. FOH is stable under normal temperature and pressure. The chemical synthesis of FOH is known in the art (Dummel et al., J. Med. Chem. 12(2): 347 (1969)). The chemical structure of FOH, representing both rFOH and sFOH, is shown below: […]

[7] = active agent at 0.5%, 24 hrs fasting, sugar feeder not provided
[8] = active agent at 1.5%, 24 hrs fasting, sugar feeder not provided
[9] = active agent at 1%, 24 hrs fasting, sugar feeder not provided
[10] = Tryptic soy broth, 37° C. for 24 hrs, listed as BrOH
[11] = active agent at 0.5%, not fasted, sugar feeder provided for free choice
[12] = internal standard in the same microtiter plate

OCC1(CO)CCC1 [1,1-Bis(hydroxymethyl)cyclobutane]
Death Rate [1, 7]: 50%

OC1CCCCC1O (stereo not drawn) [1,2-cyclohexanediol]
Death Rate [1, 7]: 22%

CC(C)(CO)CO [2,2-Dimethyl-1,3-propanediol]
Death Rate ([1]; active agent at 0.5%, 24 hrs fasting, sugar feeder provided for free choice): 10%

CC(C)(O)C(C)(C)O [2,3-Dimethylbutane-2,3-diol]
Death Rate [1, 8]: 53%

NC(CO)CO [2-Amino-1,3-propanediol]
Death Rate [1, 7]: 16%

Nc1nc(F)nc2nc[nH]c12 [2-Fluoroadenine]
Death Rate ([1]; active agent at 0.2%, 24 hrs fasting, sugar feeder provided for free choice): 30%

Nc1nc(F)nc2c1ncn2[C@@H]1O[C@H](CO)[C@@H](O)[C@H]1O [2-Fluoroadenosine]
Death Rate within 24 hrs after treatment removed [1, 9]: 22% within
Death Rate within 2 days after treatment removed [1, 9]: removed, 47%
Death Rate within 3 days after treatment removed [1, 9]: removed, 64%
Death Rate within 4 days after treatment removed [1, 9]: 75-80% within
Death Rate within 4 days after treatment removed ([1]; active agent at 1%, 24 hrs fasting, sugar feeder not provided, listed as 2-fluoroadenosine): 75-80%
timing of death after ingestion (“delayed” death) [1]: delayed

CC(CO)CO [2-Methyl-1,3-propanediol]
Death Rate [1, 7]: 12%

OCC(CO)c1ccccc1 [2-Penyl-1,3-propanediol]
Death Rate [1, 8]: 61%

O=c1[nH]c(=O)n([C@H]2C[C@H](O)[C@@H](CO)O2)cc1F [2′-Deoxy-5-fluorouridine]
Death Rate ([1]; active agent at 2%, 24 hrs fasting, sugar feeder not provided): 24%

OCC(O)CBr (stereo not drawn) [3-Bromopropane-1,2-diol]
Death Rate ([1]; active agent at 0.15%, 24 hrs fasting, sugar feeder provided for free choice, death found for a week after treatment was removed): 30-52%
Death Rate ([1]; active agent at 0.2%, 24 hrs fasting, sugar feeder not provided, death found for a week after treatment was removed): >85% death
timing of death after ingestion (“delayed” death) [1]: Delayed
MIC ([2]; Mueller Hinton broth with 2% NaCl and 50 ug/ml CaCl2, 35° C. for 24 hrs, listed as BrOH): 2.5%
MIC [3, 10]: 0.025%
MIC [4, 10]: 0.2%

OCC(O)CCl (stereo not drawn) [3-Chloro-1,2-propanediol]
Death Rate ([1]; active agent at 0.15%, 24 hrs fasting, sugar feeder not provided): >85%

OC[C@H]1O[C@@H](O)[C@H](O)[C@@H](O)[C@@H]1F [4-Deoxy-4-fluoro-β-D-glucopyranose]
Death Rate in 2 hours [5]: 10% in 2
Death Rate in 24 hours [5]: hours, 17%
Death Rate in the first hour [5]: 2% in the

C[C@@H](Cl)C(=O)O [(R)-(+)-2-Chloropropionic acid]
Death Rate [1, 7]: 10%

OCC(O)CF (stereo not drawn) [FOH, 3-fluoropropane-1,2-diol]
stability [6]: stable

Nc1ccn([C@@H]2O[C@H](CO)[C@@H](O)C2(F)F)c(=O)n1 [Gemcitabine, reference compound]
Death Rate within 24 hrs after treatment removed [1, 11]: 3% within
Death Rate within 2 days after treatment removed [1, 11]: removed, 36%
Death Rate within 3 days after treatment removed [1, 11]: 66%

CC1(C)S[C@@H]2[C@H](NC(=O)[C@H](N)c3ccccc3)C(=O)N2[C@H]1C(=O)O [ampicillin, reference compound]
Comparable Effectiveness (standard antibiotic concentration as effective as 0.4% rFOH) [3, 12]: 19 µg/mL
Comparable Effectiveness (standard antibiotic concentration as effective as 0.4% rFOH) [4, 12]: 240 µg/mL

CO[C@@]1(NC(=O)Cc2cccs2)C(=O)N2C(C(=O)O)=C(COC(N)=O)CS[C@@H]21 [cefoxitin, reference compound]
Comparable Effectiveness (standard antibiotic concentration as effective as 0.4% rFOH) [2, 12]: 48 µg/mL

OC[C@H](O)CF [sFOH, (2s)-3-fluoropropane-1,2-diol]
Death Rate ([1]; active agent at 0.3%, 24 hrs fasting, sugar feeder not provided, death found for a week after treatment was removed): 42-68%
Death Rate ([1]; active agent at 0.5%, 24 hrs fasting, sugar feeder not provided, death found for a week after treatment was removed): >85% death
timing of death after ingestion (“delayed” death) [1]: Delayed
